From patent US9750727B2 (priority 2010, dated 2017)

Tested on: drug-resistant clinical isolates of M. tuberculosis
Assay type: cell-based

Q: With `NC(=S)NN=Cc1ccncc1.[O-][Cl+3]([O-])([O-])O` [new treatment] as the molecule, how does the “MIC for 88.8% of cultures” value read?
A: Its value is 3.125 to 6.25 µg/mL.
